{
  "source": "patent US11225675B2",
  "about": "“D-lactate dehydrogenase, engineered strain containing D-lactate dehydrogenase and construction method and use of engineered strain” (Shanghai Jiao Tong University, priority 2017, dated 2022)",
  "molecules": {"B1": {"name": "D-lactate dehydrogenases LdhTi (Thermodesulfatator indicus DSM 15286) (protein)", "chain": "MKVIFFSMHPYEEEFLGPILPSDWDVEMTPDFLDETTVEKAKGAQVVSLFVSDKADGPVLEALHSYGVGLLALRSAGYDHIDIETAKRLGIKVVNVPAYSPHAIADHTLAIMLALIRRLHRAHDKVRLGDFDLDGLMGFDLNGKVAGVIGLGKIGRLVATRLKAFGCKVLGYDPYIQPEIVENVDLDTLITQADIISIHCPLTRENFHMFNEETFKRMKPGAILVNTARGGLIDTKALLEALKSGKLGGAALDVYEYERGLFFKNHQKEGIKDPYLAQLLGLANVVLTGHQAFLTREAVKNIEETTVENILEWQKNPQAKLKNEI"}, "B2": {"name": "LdhTi: D-lactate dehydrogenase from Thermodesulfatator indicus DSM 15286, amino acid sequence SEQ ID No. 1, expressed in E. coli and purified (protein)", "chain": "B1 chain", "modifications": "Thermodesulfatator indicus DSM 15286"}},
  "key": {"[1]": {"molecular_target": "T1, D-lactate dehydrogenases LdhTi (Thermodesulfatator indicus, UniProt F8A9V0)", "experiment": "Enzymatic characteristic identification (substrate spectrum) of D-lactate dehydrogenase LdhTi, NADH/NAD at 340 nm", "format": "biochemical", "details": "for whether LdhTi catalyzes the substrate (in words) / Km / kcat: 50 mM phosphate buffer pH 7.0, 0.2 mM NADH or NAD+, 37° C.; for Km / kcat: substrate of purified LdhTi, “—” = enzyme has no activity for the substrate", "method": "A reaction system is consisting of: 50 mM phosphate buffer solution (pH 7.0), 0.2 mM NADH or NAD^+ as coenzyme, a suitable amount of D-lactate dehydrogenases LdhTi and substrates with different concentrations, reacted at 37° C. An enzyme activity determination method is to determine oxidization of NADH or reduction of NAD at ultraviolet wavelength of 340 nm, wherein one enzyme activity unit is defined as the enzyme amount needed for oxidizing or reducing 1 μmoL NADH or NAD in one minute."}, "[2]": {"substrate": "O=C(O)C(=O)Cc1ccccc1", "experiment": "purified protein, by the assay type", "details": "other: substrate of purified LdhTi, 50 mM phosphate buffer pH 7.0, 0.2 mM NADH or NAD+, 37° C., “—” = enzyme has no activity for the substrate"}, "[3]": {"substrate": "C[C@@H](O)C(=O)O", "experiment": "Enzymatic characteristic identification (substrate spectrum) of D-lactate dehydrogenase LdhTi, NADH/NAD at 340 nm", "format": "biochemical, Thermodesulfatator indicus", "details": "other: substrate of purified LdhTi, 50 mM phosphate buffer pH 7.0, 0.2 mM NADH or NAD+, 37° C., “—” = enzyme has no activity for the substrate"}, "[4]": {"substrate": "CC(=O)C(=O)O", "experiment": "Enzymatic characteristic identification (substrate spectrum) of D-lactate dehydrogenase LdhTi, NADH/NAD at 340 nm", "format": "biochemical, Thermodesulfatator indicus", "details": "other: substrate of purified LdhTi, 50 mM phosphate buffer pH 7.0, 0.2 mM NADH or NAD+, 37° C., “—” = enzyme has no activity for the substrate"}, "[5]": {"molecular_target": "T1, D-lactate dehydrogenases LdhTi", "experiment": "Determination of the optimal reaction pH value of D-lactate dehydrogenases LdhTi", "format": "biochemical", "details": "37° C., 20 mM pyruvic acid, 0.2 mM NADH, pH range 3.0-11.0, FIG. 3", "method": "An enzyme activity determination method is to determine change in NADH at ultraviolet wavelength of 340 nm, and one enzyme activity unit is defined as the enzyme amount needed for oxidizing 1 μmoL of NADH in one minute. At 37° C., by using 20 mM pyruvic acid as a substrate and 0.2 mM NADH as a coenzyme, the change of enzyme activity of the D-lactate dehydrogenase within a pH range of 3.0-11.0 was determined. A buffer system is consisting of: 50 mM citric acid-sodium citrate buffer solution with pH of 3.0-7.0; 50 mM phosphate buffer solution with pH of 7.0-9.0; and 50 mM sodium carbonate-sodium hydrogen carbonate buffer solution with pH of 9.0-11.0. Experiments were repeated thrice. […] Relative enzyme activities in FIG. 3 are relative enzyme activities, which are obtained by: determining enzyme activities at different pH values, and correspondingly converting the enzyme activity values at other pH values on the basis that the highest value at pH 6.0 is 100%."}, "[6]": {"molecular_target": "T1, D-lactate dehydrogenases LdhTi", "experiment": "Determination of the optimal reaction temperature of D-lactate dehydrogenases LdhTi", "format": "biochemical", "details": "20 mM pyruvic acid, 0.2 mM NADH, 20 mM phosphate buffer pH 7.0, 30° C. to 100° C., FIG. 4", "method": "An enzyme activity determination method is to determine change in NADH at ultraviolet wavelength of 340 nm, and one enzyme activity unit is defined as the enzyme amount needed for oxidizing 1 μmoL of NADH in one minute. Conditions for determination of the optimal reaction temperature of D-lactate dehydrogenases were as follows: 20 mM pyruvic acid as a substrate, 0.2 mM NADH as a coenzyme and 20 mM phosphate buffer solution (pH 7.0) system are adopted; and enzyme activities from 30° C. to 100° C. were respectively determined, and experiments were repeated thrice. […] Relative enzyme activities in FIG. 4 are relative enzyme activities, which are obtained by: determining enzyme activities at different temperature conditions, and correspondingly converting the enzyme activity values at other temperature conditions on the basis that the highest value at 70° C. is 100%."}},
  "data": [
    {"molecule": "O=C(O)CC(=O)C(=O)O", "note": "[Oxaloacetic Acid, oxaloacetic acid]", "values": [
      {"measurement": "whether LdhTi catalyzes the substrate (in words)", "setting": "[1]", "result": "can catalyze"},
      {"measurement": "Km", "setting": "[1]", "result": "1320 ± 50", "unit": "µM"},
      {"measurement": "kcat", "setting": "[1]", "result": "4.473 ± 0.0983", "unit": "s⁻¹"}
    ]},
    {"molecule": "C[C@@H](O)C(=O)O", "note": "[D-lactic Acid, D-lactic acid]", "values": [
      {"measurement": "whether LdhTi catalyzes the substrate (in words)", "setting": "[1]", "result": "can catalyze"}
    ]},
    {"molecule": "O=CC(=O)O", "note": "[Glyoxylic Acid, glyoxylic acid]", "values": [
      {"measurement": "whether LdhTi catalyzes the substrate (in words)", "setting": "[1]", "result": "can catalyze"},
      {"measurement": "Km", "setting": "[1]", "result": "1760 ± 80", "unit": "µM"},
      {"measurement": "kcat", "setting": "[1]", "result": "2.297 ± 0.0517", "unit": "s⁻¹"}
    ]},
    {"molecule": "C[C@H](O)C(=O)O", "note": "[L-lactic Acid, L-lactic acid]", "values": [
      {"measurement": "whether LdhTi catalyzes the substrate (in words)", "setting": "[1]", "result": "no activity"}
    ]},
    {"molecule": "CC(=O)C(=O)O", "note": "[Pyruvic Acid, pyruvic acid]", "values": [
      {"measurement": "whether LdhTi catalyzes the substrate (in words)", "setting": "[1]", "result": "can catalyze"},
      {"measurement": "catalytic efficiency of LdhTi for the substrate (in words)", "setting": "[1]; compared among the tested substrates", "result": "highest catalytic efficiency"}
    ]},
    {"molecule": "O=C(O)C(=O)Cc1ccccc1", "note": "[Phenylpyruvic Acid, phenylpyruvic acid]", "values": [
      {"measurement": "whether LdhTi catalyzes the substrate (in words)", "setting": "[1]", "result": "can catalyze"}
    ]},
    {"molecule": "O=C(O)C(O)CO", "note": "(centres unmarked) [Glyceric Acid, glyceric acid]", "values": [
      {"measurement": "whether LdhTi catalyzes the substrate (in words)", "setting": "[1]", "result": "no activity"}
    ]},
    {"molecule": "B1", "values": [
      {"measurement": "Km", "setting": "[2]", "result": "4580 ± 240", "unit": "µM"},
      {"measurement": "kcat", "setting": "[2]", "result": 0.295, "unit": "s⁻¹"},
      {"measurement": "kcat/Km", "setting": "[2]", "result": 64.3, "unit": "M⁻¹ s⁻¹"},
      {"measurement": "Km", "setting": "[3]", "result": "5410 ± 280", "unit": "µM"},
      {"measurement": "kcat", "setting": "[3]", "result": "0.105 ± 0.005", "unit": "s⁻¹"},
      {"measurement": "kcat/Km", "setting": "[3]", "result": "19.3 ± 0.5", "unit": "M⁻¹ s⁻¹"},
      {"measurement": "Km", "setting": "[4]", "result": "50 ± 10", "unit": "µM"},
      {"measurement": "kcat", "setting": "[4]", "result": "1.08 ± 0.0283", "unit": "s⁻¹"},
      {"measurement": "kcat/Km", "setting": "[4]", "result": "20700 ± 667", "unit": "M⁻¹ s⁻¹"}
    ]},
    {"molecule": "B2", "values": [
      {"measurement": "optimal reaction pH value", "setting": "[5]", "result": 6.0},
      {"measurement": "optimal reaction temperature", "setting": "[6]", "result": 70, "unit": "°C"}
    ]}
  ]
}
